Source: patent US20230332232A1, “COMPOSITIONS AND METHODS FOR DIAGNOSING AND TREATING A DYSTONIA” (Duke University, priority 2020, published 2023)

Tested on: wild-type (WT) murine embryonic fibroblasts (MEFs)
Experiment: Untargeted LC/MS/MS proteomics of EVs from WT MEFs exposed 24 hours to drug, compared with untreated WT MEFs
Assay type: cell-based, mouse
Experimental: Methods for isolation and purification of exosomes and extracellular vesicles (EV) were extensively reviewed. Experiments were performed to arrive at a robust and reproducible protocol. The protocol used herein is that set forth in Théry et al, 2006, which is incorporated by reference for it teaching of this protocol. This protocol involves depleting serum-derived EVs from cell culture media by overnight ultracentrifugation and exchanging media for 1% FBS EV-depleted media. Media is then collected from cells following a 24-hour conditioning period and EVs are isolated by 18-hour ultracentrifugation at 100,000 g (FIG. 1A).
EVs were isolated from media of cultured murine embryonic fibroblasts (MEFs) prepared in-house according to protocols described by Xu 2005 from DYT1 knockin mice (Tor1a^delGAG/+) (Goodchild R E, et al. (2005) Neuron. 48:923-932) and littermate wild-type (WT) controls. The cultured MEFs from the DYT1 mice were exposed for 24 hours to Ritonavir (RTV) while the MEFs from WT mice were exposed to vehicle, ISRIB, or Salubrinal (SAL). The EVs isolated from these WT cells and DYT1 were characterized by untargeted proteomics and RNA-seq to identify differentially expressed proteins and RNAs as candidate biomarkers. Experimenter and Proteomics core staff were blinded to genotype of cell cultures throughout preparation and analysis phases. EV isolation was confirmed by Western immunoblot documenting presence of the exosomal marker (TSG101) and absence of the endoplasmic reticulum (ER) marker (CANX) (FIG. 1B (Cohort 1) and FIG. 1C (Cohort 2)).
Following the bicinchoninic acid assay (BCA) analysis and Western immunoblot of a portion of samples for QC, 11.6 μg-129.2 μg of EV protein lysates in RIPA buffer were sent to the Duke Proteomics and Metabolomics Shared Resource core facility for LC/MS/MS quantitative proteomic analysis. Samples were first normalized to 20 μg and spiked with undigested casein at a total of 40 fmol/μg, 80 fmol/μg, or 160 fmol/μg, then reduced with 10 mM dithiolthreitol for 30 minute at 80° C. and alkylated with 20 mM iodoacetamide for 30 minutes at room temperature. Next, the samples were supplemented with a final concentration of 1.2% phosphoric acid and 741 μL of S-Trap (Protifi) binding buffer (90% MeOH/100 mM […]). Proteins were trapped on the S-Trap, digested using 20 ng/μL sequencing grade trypsin (Promega) for 1 hour at 47° C., and eluted using 50 mM TEAB, followed by 0.2% FA, and lastly using 50% CAN/0.2% FA. All samples were then lyophilized to dryness and resuspended in 40 μL 1% TFA/2% acetonitrile containing 12.5 fmol/μL yeast alcohol dehydrogenase (ADH_YEAST). A QC Pool was created from 3 uL of each sample. All QC Pools were run periodically throughout the acquisition period.
Quantitative LC/MS/MS was performed on 2 μL of each sample, using a nanoAcquity UPLC system (Waters Corp) coupled to a Thermo Orbitrap Fusion Lumos high resolution accurate mass tandem mass spectrometer (Thermo) via a nanoelectrospray ionization source. Briefly, the sample was first trapped on a Symmetry C18 20 mm×180 μm trapping column (5 μL/min at 99.9/0.1 v/v water/acetonitrile), after which the analytical separation was performed using a 1.8 μm Acquity HSS T3 C18 75 μm×250 mm column (Waters Corp.) with a 90 minute linear gradient of 5% to 30% acetonitrile with 0.1% formic acid at a flow rate of 400 nanoliters/minute (nL/min) with a column temperature of 55° C. Data collection on the Fusion Lumos mass spectrometer was performed in a data-dependent acquisition (DDA) mode of acquisition with a r=120,000 (@ m/z 200) full MS scan from m/z 375-1500 with a target AGC value of 2e5 ions. MS/MS scans were acquired at Rapid scan rate (Ion Trap) with an AGC target of 5e3 ions and a max injection time of 100 ms. The total cycle time for MS and MS/MS scans was 2 seconds. A 20 second dynamic exclusion was employed to increase depth of coverage. The total analysis cycle time for each sample injection was approximately 2 hours. […]

[1] = EV protein P09528, Ferritin heavy chain

O=C(COc1ccc(Cl)cc1)NC1CCC(NC(=O)COc2ccc(Cl)cc2)CC1 (centres unmarked) [ISRIB]
ISRIB Direction Same as dE? (EV protein Akr1b1 (P45376)): yes | ISRIBvWT Z Score (EV protein Akr1b1 (P45376)): −0.22 | ISRIB Direction Same as dE? (EV protein Aldh2 (P47738)): yes | ISRIBvWT Z Score (EV protein Aldh2 (P47738)): −7.25 | ISRIBvWT Z Score (EV protein Cnn3 (Q9DAW9)): 2.76 | ISRIB Direction Same as dE? (EV protein Cnot1 (Q6ZQ08)): yes | ISRIBvWT Z Score (EV protein Cnot1 (Q6ZQ08)): −2.56 | ISRIB Direction Same as dE? (EV protein Col5a1 (Q88207)): yes | ISRIBvWT Z Score (EV protein Col5a1 (Q88207)): 0.06 | ISRIB Direction Same as dE? (EV protein Copb2 (Q55029)): yes | ISRIBvWT Z Score (EV protein Copb2 (Q55029)): −1.11 | ISRIBvWT Z Score (EV protein Cryab (P23927)): 0.39 | ISRIBvWT Z Score (EV protein Cxadr (P97792)): 1.72 | ISRIBvWT Z Score (EV protein D3YXG0): −2.25 | ISRIB Direction Same as dE? (EV protein Dars (Q922B2)): yes | ISRIBvWT Z Score (EV protein Dars (Q922B2)): −1.13 | ISRIB Direction Same as dE? (EV protein Dctn2 (Q99KJ8)): yes | ISRIBvWT Z Score (EV protein Dctn2 (Q99KJ8)): −0.53 | ISRIB Direction Same as dE? (EV protein Ddx3x (Q62167)): yes | ISRIBvWT Z Score (EV protein Ddx3x (Q62167)): −1.08 | ISRIB Direction Same as dE? (EV protein Ddx5 (Q61656)): yes | ISRIBvWT Z Score (EV protein Ddx5 (Q61656)): −0.92 | ISRIB Direction Same as dE? (EV protein Ddx39b (Q9Z1N5)): yes | ISRIBvWT Z Score (EV protein Ddx39b (Q9Z1N5)): −1.12 | ISRIB Direction Same as dE? (EV protein Dhx9 (Q70133)): yes | ISRIBvWT Z Score (EV protein Dhx9 (Q70133)): −1.27 | ISRIB Direction Same as dE? (EV protein Dhx15 (Q35286)): yes | ISRIBvWT Z Score (EV protein Dhx15 (Q35286)): −1.19 | ISRIBvWT Z Score (EV protein Esyt1 (Q3U7R1)): 0.18 | ISRIB Direction Same as dE? (EV protein Exoc4 (Q35382)): yes | ISRIBvWT Z Score (EV protein Exoc4 (Q35382)): −1.51 | ISRIBvWT Z Score (EV protein Fth1 P09528): −3.46 | ISRIBvWT Z Score (EV protein Fus (P56959)): 0.85 | ISRIBvWT Z Score (EV protein Gsto1 (Q09131)): 0.04 | ISRIB Direction Same as dE? (EV protein Hist1h3a (P68433)): yes | ISRIBvWT Z Score (EV protein Hist1h3a (P68433)): −0.97 | ISRIB Direction Same as dE? (EV protein Hnrnpf (Q9Z2X1)): yes | ISRIBvWT Z Score (EV protein Hnrnpf (Q9Z2X1)): −0.18 | ISRIBvWT Z Score (EV protein Hnrnph1 (Q35737)): 2.47 | ISRIB Direction Same as dE? (EV protein Idh2 (P54071)): yes | ISRIBvWT Z Score (EV protein Idh2 (P54071)): −2.01 | ISRIBvWT Z Score (EV protein Impa1 (Q55023)): 1.73 | ISRIBvWT Z Score (EV protein Ipo7 (Q9EPL8)): 0.30 | ISRIB Direction Same as dE? (EV protein Ipo11 (Q8K2V6)): yes | ISRIBvWT Z Score (EV protein Ipo11 (Q8K2V6)): −1.97 | ISRIBvWT Z Score (EV protein Itgb3 (Q54890)): 0.14 | ISRIBvWT Z Score (EV protein Itm2b Q89051): −2.13 | ISRIB Direction Same as dE? (EV protein Itpa (Q9D892)): yes | ISRIBvWT Z Score (EV protein Itpa (Q9D892)): −1.25 | ISRIB Direction Same as dE? (EV protein Kpna4 (Q35343)): yes | ISRIBvWT Z Score (EV protein Kpna4 (Q35343)): −3.18 | ISRIB Direction Same as dE? (EV protein Lipg (Q9WVG5)): yes | ISRIBvWT Z Score (EV protein Lipg (Q9WVG5)): −2.47 | ISRIB Direction Same as dE? (EV protein Ltbp1 (Q8CG19)): yes | ISRIBvWT Z Score (EV protein Ltbp1 (Q8CG19)): 2.17 | ISRIB Direction Same as dE? (EV protein Mcm2 (P97310)): yes | ISRIBvWT Z Score (EV protein Mcm2 (P97310)): −2.10 | ISRIBvWT Z Score (EV protein Mdk (P12025)): 1.33 | ISRIB Direction Same as dE? (EV protein Mtap (Q9CQ65)): yes | ISRIBvWT Z Score (EV protein Mtap (Q9CQ65)): −0.85 | ISRIBvWT Z Score (EV protein Myo18a): 2.27 | ISRIBvWT Z Score (EV protein Nrbp1 (Q99J45)): 0.18 | ISRIBvWT Z Score (EV protein Otub1 (Q7TQ..)): 2.26 | ISRIB Direction Same as dE? (EV protein Otub1 (Q7TQB)): yes | ISRIBvWT Z Score (EV protein Otub1 (Q7TQB)): −2.26 | ISRIB Direction Same as dE? [1]: yes | ISRIBvWT Z Score [1]: −3.46 | ISRIB Direction Same as dE? (EV protein P27612, Phospholipase A-2-activating protein): yes
